Data reported in ChEMBL document CHEMBL3400146, “Synthesis and structure-activity relationship studies of novel [6,6,5] tricyclic oxazolidinone derivatives as potential antibacterial agents” (Bioorg Med Chem Lett, 2015).
Converted amounts (≈) assume the structure as drawn.

Assays:
Enterococcus faecalis = experiment: Antibacterial activity against Enterococcus faecalis incubated for 16 hrs by agar dilution method; type: functional
[1] = system: Staphylococcus epidermidis; experiment: Antibacterial activity against methicillin-sensitive Staphylococcus epidermidis incubated for 16 hrs by agar dilution method; type: functional
[2] = system: Staphylococcus epidermidis; experiment: Antibacterial activity against methicillin-resistant Staphylococcus epidermidis incubated for 16 hrs by agar dilution method; type: functional
Staphylococcus aureus [3] = experiment: Antibacterial activity against methicillin-resistant Staphylococcus aureus incubated for 16 hrs by agar dilution method; type: functional
Staphylococcus aureus [4] = experiment: Antibacterial activity against Staphylococcus aureus […] incubated for 16 hrs by agar dilution method; type: functional
Staphylococcus aureus [5] = experiment: Antibacterial activity against methicillin-sensitive Staphylococcus aureus incubated for 16 hrs by agar dilution method; type: functional
Streptococcus pneumoniae = experiment: Antibacterial activity against penicillin-resistant Streptococcus pneumoniae incubated for 16 hrs by agar dilution method; type: functional
Liver microsome [6] = experiment: Intrinsic clearance in Sprague-Dawley rat liver microsomes assessed per mg protein at 0.1 uM incubated for 7 to 60 mins in presence of NADPH by LC/MS/MS method; type: ADME; parameters: unit not given here
[7] = Half life in human liver microsomes at 0.1 uM in presence of NADPH by LC/MS/MS method; type: ADME
[8] = Half life in Sprague-Dawley rat liver microsomes at 0.1 uM in presence of NADPH by LC/MS/MS method; type: ADME
Liver microsome [9] = experiment: Intrinsic clearance in human liver microsomes assessed per mg protein at 0.1 uM incubated for 7 to 60 mins in presence of NADPH by LC/MS/MS method; type: ADME; parameters: unit not given here

| SMILES | MIC (Enterococcus faecalis) [µg/mL] | MIC [1] [µg/mL] | MIC [2] [µg/mL] | MIC (Staphylococcus aureus [3]) [µg/mL] | MIC (Staphylococcus aureus [4]) [µg/mL] | MIC (Staphylococcus aureus [5]) [µg/mL] | MIC (Streptococcus pneumoniae) [µg/mL] | CLH (Liver microsome [6]) | half-life at 0.1 µM [7] [h] | half-life at 0.1 µM [8] [h] | CLH (Liver microsome [9]) |
| --- | --- | --- | --- | --- | --- | --- | --- | --- | --- | --- | --- |
| CC(=O)NC[C@@H]1OC(=O)N2c3ccc(-c4ccc(C5(C#N)CC5)nc4)cc3SC[C@@H]12 | 4 (≈ 9.51 µM) | 2 (≈ 4.76 µM) | 2 (≈ 4.76 µM) | 2 (≈ 4.76 µM) | 4 (≈ 9.51 µM) | 4 (≈ 9.51 µM) | 2 (≈ 4.76 µM) | – | – | – | – |
| COc1ccc(-c2ccc3c(c2)SC[C@H]2[C@H](CNC(C)=S)OC(=O)N32)cn1 | 8 (≈ 19.9 µM) | 4 (≈ 9.96 µM) | 4 (≈ 9.96 µM) | 4 (≈ 9.96 µM) | 4 (≈ 9.96 µM) | 4 (≈ 9.96 µM) | 2 (≈ 4.98 µM) | – | – | – | – |
| CC(=O)NC[C@@H]1OC(=O)N2c3ccc(-c4ccc(F)nc4)cc3SC[C@@H]12 | 4 (≈ 10.7 µM) | 2 (≈ 5.36 µM) | 2 (≈ 5.36 µM) | 2 (≈ 5.36 µM) | 4 (≈ 10.7 µM) | 4 (≈ 10.7 µM) | 2 (≈ 5.36 µM) | – | – | – | – |
| CC(=O)NC[C@H]1CN(c2ccc(N3CCOCC3)c(F)c2)C(=O)O1 [LINEZOLID] | – | 2 (≈ 5.93 µM) | 2 (≈ 5.93 µM) | 1 (≈ 2.96 µM) | – | – | – | – | – | – | – |
| COc1ccc(-c2ccc3c(c2)SC[C@H]2[C@H](CNC(C)=O)OC(=O)N32)cn1 | 8 (≈ 20.8 µM) | 4 (≈ 10.4 µM) | 4 (≈ 10.4 µM) | 4 (≈ 10.4 µM) | 8 (≈ 20.8 µM) | 8 (≈ 20.8 µM) | 4 (≈ 10.4 µM) | – | – | – | – |
| N#CC1(c2ccc(-c3ccc4c(c3)NCC3C(CO)OC(=O)N43)cn2)CC1 (configuration not stated) | > 16 | > 16 | – | – | > 16 | > 16 | > 16 | – | – | – | – |
| CC(C)(C)OC(=O)N1CC2C(CO)OC(=O)N2c2ccc(-c3ccc(C4(C#N)CC4)nc3)cc21 (configuration not stated) | > 16 | > 16 | – | – | > 16 | > 16 | > 16 | – | – | – | – |
| CC(=O)NC[C@@H]1OC(=O)N2c3ccc(-c4ccc(N5CCOC5=O)nc4)cc3S(=O)(=O)C[C@@H]12 | > 16 | > 16 | – | – | > 16 | > 16 | > 16 | – | – | – | – |
| CC(=O)NCC1OC(=O)N2c3ccc(-c4ccc(N5CCOC5=O)nc4)cc3NCC12 (configuration not stated) | 16 (≈ 37.8 µM) | 16 (≈ 37.8 µM) | > 2 | > 4 | 16 (≈ 37.8 µM) | 16 (≈ 37.8 µM) | 4 (≈ 9.45 µM) | – | – | – | – |
| O=C1OCCN1c1ccc(-c2ccc3c(c2)SC[C@H]2[C@H](CO)OC(=O)N32)cn1 | > 16 | > 16 | – | – | > 16 | > 16 | > 16 | – | – | – | – |
| CC(=S)NC[C@@H]1OC(=O)N2c3ccc(-c4ccc(N5CCOC5=O)nc4)cc3SC[C@@H]12 | 1 (≈ 2.19 µM) | 1 (≈ 2.19 µM) | 1 (≈ 2.19 µM) | 1 (≈ 2.19 µM) | 2 (≈ 4.38 µM) | 2 (≈ 4.38 µM) | 1 (≈ 2.19 µM) | 99.6 | 0.55 | 0.35 | 63.4 |
| CN1CC(c2ccc(-c3ccc4c(c3)OC[C@H]3[C@H](CO)SC(=O)N43)cn2)OC1=O (single isomer, unassigned) | > 16 | > 16 | – | – | > 16 | > 16 | > 16 | – | – | – | – |
| CC(=O)NC[C@@H]1OC(=O)N2c3ccc(-c4ccc(N5CCOC5=O)nc4)cc3SC[C@@H]12 | 4 (≈ 9.08 µM) | 2 (≈ 4.54 µM) | 2 (≈ 4.54 µM) | 2 (≈ 4.54 µM) | 4 (≈ 9.08 µM) | 4 (≈ 9.08 µM) | 1 (≈ 2.27 µM) | 5.71 | 10.1 | 6.13 | 3.47 |
| O=C1OCCN1c1ccc(-c2ccc3c(c2)OC[C@H]2[C@H](CO)SC(=O)N32)cn1 | > 16 | > 16 | – | – | > 16 | > 16 | > 16 | – | – | – | – |
| N#CC1(c2ccc(-c3ccc4c(c3)SC[C@H]3[C@H](CO)OC(=O)N43)cn2)CC1 | > 16 | > 16 | – | – | > 16 | > 16 | > 16 | – | – | – | – |
| CC(=O)NC[C@@H]1OC(=O)N2c3ccc(-c4ccc(C#N)nc4)cc3SC[C@@H]12 | 2 (≈ 5.26 µM) | 4 (≈ 10.5 µM) | 4 (≈ 10.5 µM) | 4 (≈ 10.5 µM) | 8 (≈ 21 µM) | 4 (≈ 10.5 µM) | 2 (≈ 5.26 µM) | – | – | – | – |
| CC(=S)NC[C@@H]1OC(=O)N2c3ccc(-c4ccc(F)nc4)cc3SC[C@@H]12 | 2 (≈ 5.14 µM) | 2 (≈ 5.14 µM) | 1 (≈ 2.57 µM) | 2 (≈ 5.14 µM) | 8 (≈ 20.5 µM) | 8 (≈ 20.5 µM) | 1 (≈ 2.57 µM) | – | – | – | – |
| N#Cc1ccc(-c2ccc3c(c2)SC[C@H]2[C@H](CO)OC(=O)N32)cn1 | > 16 | > 16 | – | – | > 16 | > 16 | > 16 | – | – | – | – |
| CC(=S)NC[C@@H]1OC(=O)N2c3ccc(-c4ccc(C#N)nc4)cc3SC[C@@H]12 | > 16 | 4 (≈ 10.1 µM) | 4 (≈ 10.1 µM) | 4 (≈ 10.1 µM) | 8 (≈ 20.2 µM) | 8 (≈ 20.2 µM) | 4 (≈ 10.1 µM) | – | – | – | – |
| CC(=O)NC[C@@H]1OC(=O)N2c3ccc(-c4ccc(N5CCOC5=O)nc4)cc3[S+]([O-])C[C@@H]12 (some centres not stated) | > 16 | > 16 | – | – | > 16 | > 16 | > 16 | – | – | – | – |
| CC(=O)NC[C@@H]1OC(=O)N2c3ccc(-c4ccc(C5CN(C)C(=O)O5)nc4)cc3SC[C@@H]12 (single isomer, unassigned) | 4 (≈ 8.8 µM) | 2 (≈ 4.4 µM) | 2 (≈ 4.4 µM) | 2 (≈ 4.4 µM) | 4 (≈ 8.8 µM) | 4 (≈ 8.8 µM) | 2 (≈ 4.4 µM) | 9.08 | – | 3.85 | 0 |
| N#Cc1ccc(-c2ccc3c(c2)OC[C@H]2[C@H](CO)SC(=O)N32)cn1 | > 16 | > 16 | – | – | > 16 | > 16 | > 16 | – | – | – | – |
| CC(=O)NC[C@@H]1OC(=O)N2c3ccc(-c4ccc(C(C)=O)nc4)cc3SC[C@@H]12 | 4 (≈ 10.1 µM) | 2 (≈ 5.03 µM) | 2 (≈ 5.03 µM) | 2 (≈ 5.03 µM) | 8 (≈ 20.1 µM) | 2 (≈ 5.03 µM) | 2 (≈ 5.03 µM) | – | – | – | – |
| CN1C[C@H](c2ccc(-c3ccc4c(c3)OC[C@H]3[C@H](CO)OC(=O)N43)cn2)OC1=O | 1 (≈ 2.52 µM) | 0.25 (≈ 0.629 µM) | 0.25 (≈ 0.629 µM) | 0.5 (≈ 1.26 µM) | 0.5 (≈ 1.26 µM) | 0.5 (≈ 1.26 µM) | 1 (≈ 2.52 µM) | – | 68.8 | 16.7 | – |
| CC(=O)NCC1OC(=O)N2c3ccc(-c4ccc(N5CCOC5=O)nc4)cc3N(C(=O)OC(C)(C)C)CC12 (configuration not stated) | > 16 | > 16 | – | – | > 16 | > 16 | > 16 | – | – | – | – |
